Reference: publication PMC10262914 (Bioorganic chemistry, 2022)
≈ marks a conversion by molar mass, not a printed value. Where “and” joins values, the source holds several entries; their conditions need not be identical. Equal entries are not always repeated. Where two headings read alike, the source gives them in different places.

Key:
[1] = tested on: Mycobacterium tuberculosis H37Rv; assay: Alamar blue metabolic readout assay; assay type: cell-based; conditions: for GAS MIC: M. tuberculosis H37Rv, GAS media; for MIC: Mycobacterium tuberculosis, H37RV, read-out: GAS MIC
[2] = tested on: Mycobacterium tuberculosis H37Rv; assay: Alamar blue metabolic readout assay; assay type: cell-based; conditions: for 7H12 MIC: M. tuberculosis H37Rv, 7H12 media; for MIC: Mycobacterium tuberculosis, H37RV, read-out: 7H12 MIC
[3] = tested on: Mycobacterium tuberculosis H37Rv; assay: Alamar blue assay, MIC stated as range over GAS and 7H12 media; assay type: cell-based; conditions: for MIC (range over both media): H37Rv
[4] = tested on: Mycobacterium tuberculosis H37Rv; assay: Low oxygen recovery assay; assay type: cell-based; conditions: for MIC: Mycobacterium tuberculosis, H37RV, read-out: LORA MIC
[5] = tested on: VERO cells (kidney epithelial cells); assay: Toxicity against VERO cells; assay type: cell-based; conditions: Chlorocebus sabaeus, Vero, read-out: Vero IC50, toxicity against Vero cells
[6] = mouse, microsomes
[7] = microsomes
[8] = human, microsomes
in vitro [9] = conditions: mouse, microsomes, pH 7.4
in vitro [10] = conditions: monkey, microsomes, pH 7.4
in vitro [11] = conditions: human, microsomes, pH 7.4
[12] = Microsomal stability assay, mouse; conditions: mouse hepatic microsomes
[13] = Microsomal stability assay, human; conditions: human hepatic microsomes
[14] = Microsomal stability assay, marmoset; conditions: marmoset hepatic microsomes
[15] = rat, microsomes
[16] = dog, microsomes
in vitro [17] = conditions: rat, microsomes, pH 7.4
in vitro [18] = conditions: dog, microsomes, pH 7.4

Compound	GAS MIC [1]	MIC [1]	7H12 MIC [2]	MIC [2]	MIC [4]	IC50 [5]	other results
[2H]c1c(C([2H])([2H])[2H])c([2H])n2c(C(=O)NCc3cc(Cl)cc(Cl)c3)c(C)nc2c1[2H] [Compound 47, N-(3,5-Dichlorobenzyl)-2-methyl-6-(methyl-d3)imidazo[1,2-a] pyridine-5,7,8-d3-3-carboxamide]	0.0188 ± 0.0028 µM	0.0188 µM (≈ 6.66 ng/mL)	0.04 ± 0.013 µM	0.04 µM (≈ 14.2 ng/mL)	8.87 µM (≈ 3140 ng/mL)	> 10 µM	fold less active than 46 ([3]; versus 46 (3,5-difluoro)): > 2 fold
[2H]c1c(C([2H])([2H])[2H])cn2c(C(=O)NCc3ccc(C(F)(F)F)cc3)c(C([2H])([2H])[2H])nc2c1[2H] [Compound 55, 2,6-Bis(methyl-d3)-N-(4-(trifluoromethyl)benzyl)imidazo[1,2-a] pyridine-7,8-d2-3-carboxamide]		0.0096 ± 0.0026 µM (≈ 3.41 ng/mL)		0.0049 ± 0.0013 µM (≈ 1.74 ng/mL)	> 10 µM	> 50 µM	CLint [6]: 42 ml/min/g protein; CLint [7]: 98 ml/min/g protein; CLint [8]: 38 ml/min/g protein; half-life at 2 μM (in vitro [9]): 33 min; half-life at 2 μM (in vitro [10]): 14 min; half-life at 2 μM (in vitro [11]): 36 min
[2H]c1c(C([2H])([2H])[2H])c([2H])n2c(C(=O)NCc3ccc(S(F)(F)(F)(F)F)cc3)c(C)nc2c1[2H] [Compound 32, 2-Methyl-6-(methyl-d3)-N-(4-(pentafluoro-λ^6-sulfaneyl)benzyl) imidazo[1,2-a]pyridine-5,7,8-d3-3-carboxamide]	0.0029 µM and 0.0029 ± 0.0005 µM		0.0059 µM and 0.0059 ± 0.0003 µM				MIC (range over both media) [3]: 0.003 to 0.006 µM
[2H]c1c(C([2H])([2H])[2H])c([2H])n2c(C(=O)NCc3ccc(OC)cc3)c(C)nc2c1[2H] [Compound 37, N-(4-Methoxybenzyl)-2-methyl-6-(methyl-d3)imidazo[1,2-a] pyridine-5,7,8-d3-3-carboxamide]	0.0245 ± 0.0005 µM	0.0245 µM (≈ 7.73 ng/mL)	0.0354 ± 0.01 µM	0.0354 µM (≈ 11.2 ng/mL)	> 10 µM	> 10 µM	
[2H]c1c(C([2H])([2H])[2H])cn2c(C(=O)NC([2H])([2H])c3ccc(C(F)(F)F)cc3)c(C([2H])([2H])[2H])nc2c1[2H] [Compound 57, 2,6-Bis(Methyl-d3)-N-((4-(trifluoromethyl)phenyl)methyl-d2) imidazo[1,2-a]pyridine-7,8-d2-3-carboxamide]	0.0057 ± 0.0012 µM		0.0067 ± 0.0009 µM				LORA MIC ([4]; M. tuberculosis H37Rv, low oxygen "latent" conditions): >10,000 nM; CLint [12]: 78 ml/min/g protein; CLint [13]: 32 ml/min/g protein; Half-life ([13]; 2 μM compound, 0.5 mg/mL): 43 min; CLint [14]: 60 ml/min/g protein; Half-life ([14]; 2 μM compound, 0.5 mg/mL): 23 min
[2H]c1c(C([2H])([2H])[2H])c([2H])n2c(C(=O)NCc3ccc(C(F)(F)F)cc3)c(C)nc2c1[2H] [Compound 30, 2-Methyl-6-(methyl-d3)-N-(4-(trifluoromethyl)benzyl)imidazo [1,2-a]pyridine-5,7,8-d3-3-carboxamide]	0.0091 ± 0.0058 µM	0.0091 µM (≈ 3.22 ng/mL)		0.0038 ± 0.0013 µM (≈ 1.34 ng/mL)	> 10 µM	> 50 µM	CLint [6]: 70 ml/min/g protein; CLint [7]: 116 ml/min/g protein; CLint [8]: 26 ml/min/g protein; CLint [15]: 28 mL/min/g protein; CLint [16]: 64 mL/min/g protein; half-life at 2 μM (in vitro [9]): 20 min; half-life at 2 μM (in vitro [10]): 12 min; half-life at 2 μM (in vitro [11]): 53 min; half-life at 2 μM (in vitro [17]): 50 min; half-life at 2 μM (in vitro [18]): 22 min
[2H]c1c(C([2H])([2H])[2H])c([2H])n2c(C(=O)NCc3cccc(Cl)c3)c(C)nc2c1[2H] [Compound 41, N-(3-Chlorobenzyl)-2-methyl-6-(methyl-d3)imidazo[1,2-a] pyridine-5,7,8-d3-3-carboxamide]	0.0035 ± 0.0003 µM	0.0035 µM (≈ 1.12 ng/mL)	0.0222 ± 0.0057 µM	0.0222 µM (≈ 7.1 ng/mL)	4.52 µM (≈ 1450 ng/mL)	> 10 µM	
[2H]c1c(C([2H])([2H])[2H])c([2H])n2c(C(=O)NCc3cc(F)cc(F)c3)c(C)nc2c1[2H] [Compound 46, N-(3,5-Difluorobenzyl)-2-methyl-6-(methyl-d3)imidazo[1,2-a] pyridine-5,7,8-d3-3-carboxamide]	0.0072 ± 0.0016 µM	0.0072 µM (≈ 2.31 ng/mL)	0.0124 ± 0.0045 µM	0.0124 µM (≈ 3.98 ng/mL)	6.91 µM (≈ 2220 ng/mL)	> 10 µM	MIC (range over both media) [3]: 0.007 to 0.012 µM
[2H]c1c(C)cn2c(C(=O)NCc3ccc(C(F)(F)F)cc3)c(C([2H])([2H])[2H])nc2c1[2H] [Compound 52, 6-Methyl-2-(methyl-d3)-N-(4-(trifluoromethyl)benzyl)imidazo [1,2-a]pyridine-7,8-d2-3-carboxamide]		0.0074 ± 0.0028 µM (≈ 2.61 ng/mL)		0.0039 ± 0.0016 µM (≈ 1.37 ng/mL)	> 10 µM	> 50 µM	CLint [6]: 87 ml/min/g protein; CLint [7]: 116 ml/min/g protein; CLint [8]: 30 ml/min/g protein; half-life at 2 μM (in vitro [9]): 16 min; half-life at 2 μM (in vitro [10]): 12 min; half-life at 2 μM (in vitro [11]): 46 min
[2H]c1c(C([2H])([2H])[2H])c([2H])n2c(C(=O)NCc3ccccc3Cl)c(C)nc2c1[2H] [Compound 42, N-(2-Chlorobenzyl)-2-methyl-6-(methyl-d3)imidazo[1,2-a] pyridine-5,7,8-d3-3-carboxamide]	0.0134 ± 0.0022 µM	0.0134 µM (≈ 4.29 ng/mL)	0.112 ± 0.0195 µM	0.112 µM (≈ 35.8 ng/mL)	8.49 µM (≈ 2720 ng/mL)	> 10 µM	
[2H]c1c(C([2H])([2H])[2H])c([2H])n2c(C(=O)NCc3ccc(S(C)(=O)=O)cc3)c(C)nc2c1[2H] [Compound 33, 2-Methyl-6-(methyl-d3)-N-(4-(methylsulfonyl)benzyl)imidazo[1,2-a]pyridine-5,7,8-d3-3-carboxamide]		0.174 ± 0.0269 µM (≈ 63.2 ng/mL)		0.212 ± 0.0282 µM (≈ 77.1 ng/mL)	> 10 µM	> 10 µM	MIC (range over both media) [3]: 0.174 to 0.212 µM
